Experimental findings from publication PMC3641071, “Pharmacokinetics and Efficacy of PEGylated Liposomal Doxorubicin in an Intracranial Model of Breast Cancer” (PLoS ONE, 2013) are described below.

Read-outs that look alike come from different tables or passages of the source.

In data set [1] the test system is intracranial MDA-MB-231-BR human triple-negative breast cancer xenografts. The data set can be described thus: Efficacy study: median survival in intracranial model of breast cancer. In kind it is in vivo, Foxn1nu/nu mice. To be noted: single agent, control 26 (25-28).
Method: Therapeutic studies and assessment for response were performed with the assistance of the Mouse Phase I Unit (MP1U). Female, Foxn1^nu/nu mice, approximately 20 grams and aged 8 weeks of age were bred in-house from animals purchased from Charles River Laboratories International, Inc. (Wilmington, MA; Stock #490) and were used for all studies. […] Cells were stereotactically-injected into the right caudate nucleus of the basal ganglia using a 27 gauge needle (from Bregma a:1.0mm, l:-2.0 mm, d:-4.0 mm) which remained in place for a period of 2 minutes (min) to minimize reflux through the needle track.
The Kaplan-Meier method and Log-rank tests were used to evaluate and compare overall survival among treatment groups. Unadjusted p-values are reported. For bioluminescence imaging, fold changes were calculated relative to the start date of treatment. […] For every time point where at least two animals were alive in the treatment group, the median level and interquartile range (25th–75th percentile) for bioluminescence imaging were calculated.
Data set [2] relates to intracranial MDA-MB-231-BR luciferase-expressing tumors. The data set can be described thus: Bioluminescence imaging of intracranial tumors. In kind it is in vivo, Foxn1nu/nu mice. On the procedure: All animals were anesthetized via inhalation with 2% vaporized isoflurane during the imaging process. Approximately 15 min prior to imaging, all inoculated mice received an intraperitoneal (IP) injection of D-Luciferin dissolved in PBS (150 mg/kg; Caliper Life Sciences, Hopkinton, MA). To confirm the presence or absence of intracranial tumor, mice were imaged using the IVIS Lumina camera (Caliper Life Sciences, Hopkinton, MA). Images were analyzed using Living Image 4.0 Software (Caliper Life Sciences, Hopkinton, MA). All values were recorded as photons/second and were corrected for the presence of background signal.
Treatment was ongoing until clinical symptoms necessitated sacrifice. […] Mice were weighed a minimum of three times/weekly and were monitored by optical imaging weekly until clinical symptoms (i.e. decreased response to stimuli, neurologic dysfunction, weight loss of 20% and/or a Body Composition Score of 2 or less) necessitated sacrifice.
The Kaplan-Meier method and Log-rank tests were used to evaluate and compare overall survival among treatment groups. […] For bioluminescence imaging, fold changes were calculated relative to the start date of treatment. If present, negative imaging values (due to correction for background) were recorded and set to zero. […]

In data set [3] the test system is MDA-MB-231-BR cells. Put plainly: Cell viability (MTS) assay, single agent and combination treatments. The data set is classed as cell-based. To be noted: Homo sapiens, read-out: IC50 (50% reduction in MTS dye conversion), 72 hours, single agent. On the procedure:
A mitochondrial dye conversion assay (Cell Titer 96® Aqueous One Solution Cell Proliferation Assay; Promega Corp., Madison, WI) was used to measure cell viability after treatment. This assay was conducted according to manufacturer's instructions, with modifications. […] Cell counting was performed with an automated cell counter. Cells were allowed to adhere overnight, and media was replaced with fresh media containing a range of drug doses. After the specified treatment period, 20 µl of tetrazolium compound inner salt (MTS) containing an electron coupling reagent, phenazine ethosulfate (PES) was added in each well and incubated at 37°C for 1 hour (h). The MTS absorbance was measured spectrophotometrically at 490 nm (minus background absorbance). All cytotoxic experiments were done in triplicate.
Drug combination interactions were analyzed using methods developed by Chou and Talalay.
CalcuSyn (BioSoft, Cambridge, UK) was used to estimate the IC50 for each drug and to determine the combination index, which is a measurement of the type of drug interactions. A combination index (CI) of 1 indicates an additive response, <1 indicates a synergistic response, and >1 indicates an antagonistic response.
In general terms: Tetrazolium dyes change colour on reduction, which living cells bring about.

Data set [4] has as its system formation of PAR in MDA-MB-231-BR cellular extracts. Put plainly: PAR levels in cellular extracts (HT PARP in vivo Pharmacodynamic Assay II). In kind it is cell-based, human. To be noted: data not shown. On the procedure:
Doxorubicin (NonL-doxo) and PEGylated liposomal doxorubicin (PLD, Doxil®) were both obtained from the University of North Carolina (UNC) Hospitals Pharmacy (Chapel Hill, NC). The poly-ADP-ribose polymerase (PARP) inhibitor, ABT-888, was synthesized by the Chemistry Center for Integrative Chemical Biology and Drug Discovery at UNC (Dr. S. Frye). ABT-888 was dissolved in PBS (phosphate-buffered saline, Life Technologies, Grand Island, NY). The molecular weight of pure ABT-888 is 244.29 g/mol, while the molecular weight of the salt form (which includes 2 HCl molecules) is 317.21 g/mol. All calculations were performed using the molecular weight of the salt form of ABT-888. The ability of ABT-888 to inhibit the formation of PAR was confirmed by measuring PAR levels in MDA-MB-231-BR cellular extracts using HT PARP in vivo Pharmacodynamic Assay II (Trevigen, Gaitherburg, MD, data not shown).

Data set [5] in a line: Pharmacokinetic study: sum total doxorubicin in plasma, brain tumor and brain by HPLC-FL. The data set is classed as in vivo. To be noted: 6 mg/kg IV x1; for AUC(0-inf): read-out: AUC0-∞ of sum total doxorubicin. The method, then:
Group 1 (n = 23) received NonL-doxo administered over 10–15 seconds at 6 mg/kg IV ×1 via tail vein.
Approximately 1 mL of blood was collected via terminal cardiac puncture following deep anesthesia (ketamine 100 mg/kg IP ×1 and Domitor® 1 mg/kg IP ×1) using sodium heparin as an anticoagulant and centrifuged at 1,500 g for 5 minutes to collect plasma. Brain tumor, peri-tumoral brain and normal (contralateral, non-tumor) brain were collected from each mouse. Plasma, tumor, and tissues were placed in cryopreservation vials and preserved by snap freezing using liquid nitrogen. All samples were stored at −80°C until analysis.
Total tissue and tumor weight was recorded at time of collection. Whole tissue and tumors were snap frozen in liquid nitrogen and stored at −80°C until homogenized. To form tissue and tumor homogenates, the intact tissues and tumors were thawed and sectioned. The sections were weighed and diluted in a 1:3 ratio with phosphate buffered saline (PBS) solution. Finally, these mixtures were homogenized by placing zirconium oxide beads (15 small and 2 large; Omni International Inc, Kennesaw, GA) into 2 mL tubes at […] using a Precellys 24 homogenizer (Omni International Inc, Kennesaw, GA) twice for 15 sec each with a 5 sec wait between each run.
Samples were further processed for the analytical studies using protein precipitation with acetonitrile. An 800 µL of extraction solution containing internal standard (acetonitrile with 100 ng/mL daunorubicin) was added to 200 µL of plasma, tumor or tissue homogenate into a 2 mL microcentrifuge tube. The samples were vortexed for 10 min and centrifuged at 10,000×g for 10 min at 4°C. […] The samples were then vortexed, transferred into auto-sampler vials and analyzed by high-performance liquid chromatography (HPLC) using fluorescence (FL) detection (excitation wavelength: 490 nm/ emission wavelength: 590 nm). The HPLC-FL method to measure sum total (encapsulated and released) doxorubicin in plasma, tumor, and tissues was modified from previous studies, [23], [24].
The area under the concentration versus time curve from 0 to ∞ (AUC0–∞) was calculated using the linear up/log down rule. The plasma volume of distribution (Vd), clearance (CL), and half-life (t1/2) were calculated using standard equations. The maximum concentration (Cmax) and time of Cmax (tmax) were determined by visual inspection of the concentration versus time data.

Setting [6] is: female, athymic nude (nu/nu), mouse, brain tumor.
Setting [7] is: female, athymic nude (nu/nu), mouse, normal brain.
Setting [8] is: female, athymic nude (nu/nu), mouse, peri-tumoral brain.
[9] abbreviates: female, athymic nude (nu/nu), mouse, plasma.

In the case of `C[C@]1(c2nc3c(C(N)=O)cccc3[nH]2)CCCN1` [ABT-888], the “Median Survival and 95% CI” value in data set [1] (ABT-888 25 mg/kg/day oral gavage, 25 mg/kg/day) is recorded as 27 (24 – 31) days. For the same compound, in data set [2] (ABT-888 25 mg/kg/day OG, 4 weeks post-treatment, control 87.8 at 3 weeks), the “highest median fold change from baseline in bioluminescence” value is recorded as 41.8. The half-inhibitory concentration (IC50) in data set [3] is 277 µM. The “ability to inhibit the formation of PAR” value in data set [4] is listed as “confirmed”.

`COc1cccc2c1C(=O)c1c(O)c3c(c(O)c1C2=O)C[C@@](O)(C(=O)CO)C[C@@H]3O[C@H]1C[C@H](N)[C@H](O)[C@H](C)O1` [NonL-doxo, Doxorubicin]: the “time after which sum total doxorubicin was undetectable” value in data set [5] (brain tumor) turned out to be 24 h; in data set [5] (normal (contralateral, non-tumor) brain), 3 h; in data set [5] (peri-tumoral brain), 6 h; in data set [5] (plasma), 24 h. Also, the peak concentration (Cmax) in data set [5] (setting [6]) was found to be 570 ng/mL; in data set [5] (setting [7]) it was 92 ng/mL; in data set [5] (setting [8]), 32 ng/mL; in data set [5] (setting [9]), 831 ng/mL. The time to peak (Tmax) was found to be 6 h in data set [5] (setting [6]), 1 h in data set [5] (setting [7]), 3 h in data set [5] (setting [8]) and 0.083 h in data set [5] (setting [9]). Also, the AUC(0-inf) in data set [5] (setting [6]) turned out to be 12100 ng·h/mL; in data set [5] (female, athymic nude (nu/nu), mouse, normal (contralateral, non-tumor) brain) it was 326 ng·h/mL; in data set [5] (setting [8]) it was 283 ng·h/mL; in data set [5] (female, athymic nude (nu/nu), mouse, plasma, noncompartmental), 1540 ng·h/mL. In data set [5] (setting [9]), this compound displayed a volume of distribution (Vd) of 56.2 L/kg. For the same compound, the clearance in data set [5] (female, athymic nude (nu/nu), mouse, plasma, read-out: CL of sum total doxorubicin (converted)) was 64.7 mL/min/kg. Also, the half-life in data set [5] (female, athymic nude (nu/nu), mouse, plasma, read-out: t1/2 of sum total doxorubicin (converted)) is 10 h. The “Median Survival and 95% CI” value in data set [1] (6 mg/kg IV weekly, from intracranial cell injection) is on record as 23.5 (18 – 28) days. Also, the “highest median fold-change in bioluminescence” value in data set [2] (6 mg/kg IV weekly single agent, 3 weeks post-treatment) was 4.6. In addition, in data set [3], the 50% inhibitory concentration (IC50) came to 0.242 µM.

Broadly, the IC50 is the concentration that gives 50% inhibition. In general, Cmax refers to the maximum level reached in the sampled fluid or tissue. A word on the Tmax: it is the time from dosing to the highest level. A word on the Vd: it is a proportionality between amount in the body and measured concentration, not a real space.
